According to patent publication US20130023553A1, “PEGYLATED OPIOIDS WITH LOW POTENTIAL FOR ABUSE AND SIDE EFFECTS” (Nektar Therapeutics, priority 2010, published 2013):
Read-outs that look alike come from different tables or passages of the source.

Experiments:
[1] = 25 mg/kg intravenously, an hour following injection
Method: An hour following injection, the animals were sacrificed and plasma and the brain were collected and frozen immediately. Following tissue and plasma extractions, concentrations of the compounds in brain and plasma were measured using LC-MS/MS. The brain:plasma ratio was calculated as the ratio of measured concentrations in the brain and plasma.

squirrel monkeys = assay: Monkey self-administration model of addictive potential
Description: Dose-related effects of the test articles were examined, using two or more doses of each drug in 3-4 subjects in a double alternation schedule in which each unit dose (or vehicle) was used in two consecutive sessions before a change in unit dose.
Addictive potential of opioid compounds and opioid conjugates of the invention may be assessed through the use of squirrel monkey models as known in the art.
Under the double alternation schedule, each unit dose (or vehicle) was available for intravenous self-administration for two consecutive sessions before the unit dose was changed. In this way, it was possible to establish the function relating unit dose of intravenous drug to (i) number of injections per session, and/or (ii) the percentage of total responses that occur on the lever leading to self-administration (injection-lever responding, % ILR). Unit doses of drugs ranged from 0.01 to 3.2 mg/kg/injection.

CD-1 male mice = assay: Phenylquinone writhing analgesic assay; assay type: in vivo; conditions: Mus musculus; mPEGn-O-HydroxyCodone series
Method: The assay utilized CD-1 male mice (5-8 mice per group), each mouse being approximately 0.020-0.030 kg on the study day. Mice were treated according to standard protocols. Mice were given a single “pretreatment” dose of a compound lacking covalent attachment of a water-soluble, non-peptidic oligomer (i.e., non-PEG oligomer-modified parent molecule), a corresponding version comprising the compound covalently attached to a water-soluble, non-peptidic oligomer (i.e., the conjugate), or control solution (IV, SC, IP or orally) thirty minutes prior to the administration of the phenylquinone (PQ) solution. Each animal was given an IP injection of an irritant (phenylquinone, PQ) that induces “writhing” which may include: contractions of the abdomen, twisting and turning of the trunk, arching of the back, and the extension of the hindlimbs. Each animal was given an IP injection of PQ (1 mg/kg PQ, 0.1 mL/10 g bodyweight). After the injection, the animals were returned to their observation enclosure and their behavior was observed. Contractions were counted between 35 and 45 minutes after the ‘pretreatment”. The animals were used once. Each tested article was dosed at a range between 0.1 and 100 mg/kg (n=5-10 animals/dose).

[2] = Pharmacokinetics following intravenous (IV) dosing; assay type: in vivo, Sprague-Dawley rats; set-up: Cmax: unit: ng/mL; conditions: hydroxycodone series, 1 mg/kg IV, Mean ± SD
Description: (§1) There were 3 rats/group. All animals were food fasted overnight. […] The predose sample was collected from the JVC.
(§2) Following the last collection point, the animals were euthanized.

[3] = Pharmacokinetics following oral (PO) dosing; assay type: in vivo, Sprague-Dawley rats; set-up: Cmax: unit: ng/mL; conditions: for Tmax: median value; for bioavailability: po, 5 mg/kg; for AUC(0-inf) / half-life: * n = 2; for half-life: read-out: T1/2(z)
Description: as §1, §2

mice = assay: Oral dose giving maximal analgesia; assay type: in vivo
human mu opioid receptor [4] = molecular target: T1, human mu opioid receptor (Homo sapiens, UniProt P35372); assay: biochemical; assay type: binding
T1 construct: expressed in transfected cells; host or cells: CHO cells
T1 sequence (P35372 whole entry): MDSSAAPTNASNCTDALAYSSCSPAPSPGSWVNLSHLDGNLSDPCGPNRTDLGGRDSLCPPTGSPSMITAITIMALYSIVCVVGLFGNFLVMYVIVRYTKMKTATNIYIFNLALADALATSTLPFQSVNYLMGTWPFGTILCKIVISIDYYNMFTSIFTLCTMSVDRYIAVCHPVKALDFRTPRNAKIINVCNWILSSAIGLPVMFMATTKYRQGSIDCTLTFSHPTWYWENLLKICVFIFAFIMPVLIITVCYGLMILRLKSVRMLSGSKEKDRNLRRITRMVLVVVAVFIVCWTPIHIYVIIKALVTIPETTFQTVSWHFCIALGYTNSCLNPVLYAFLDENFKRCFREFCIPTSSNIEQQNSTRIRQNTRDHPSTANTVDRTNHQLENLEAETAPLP
Method: Radioligand displacement was measured using scintillation proximity assays (SPA).
Briefly, serial dilutions of the test compounds were placed in a 96-well plate to which were added SPA beads, membrane and radioligand. The assay conditions for each opioid receptor subtype are described in Table 10 below. The plates were incubated for 8 hours-overnight at room temperature, spun at 1000 rpm to pellet the SPA beads, and radioactivity was measured using the TopCount® microplate Scintillation counter. Specific binding at each concentration of test compound was calculated by subtracting the non-specific binding measured in the presence of excess cold ligand. IC50 values were obtained by non-linear regression of specific binding versus concentration curves and Ki values were calculated using Kd values that were experimentally pre-determined for each lot of membrane preparations.

human mu opioid receptor [5] = molecular target: T1, human mu opioid receptor; assay: cell-based; conditions: for Emax: read-out: % max effect, mu opioid receptor
Method: Studies were conducted in CHO cells heterologously expressing the cloned human mu, kappa or delta opioid receptors. cAMP was measured using a cAMP HiRange homogenous time-resolved fluorescence assay (HTRF Assay), that is based on a competitive immunoassay principle (Cisbio, Cat.#62AM6PEC).
Briefly, suspensions of cells expressing either the mu, kappa or delta opioid receptors were prepared in buffer containing 0.5 mM isobutyl-methyl xanthine (IBMX). […] EC50 values were calculated for each compound from a sigmoidal dose-response plot of concentrations versus maximum response. To determine if the compounds behaved as full or partial agonists in the system, the maximal response at the highest tested concentrations of compounds were compared to that produced by a known full agonist.

[6] = hydroxycodone series, 5.0 mg/kg oral, Mean ± SD
[7] = male, Sprague-Dawley, rat, plasma
[8] = male, Sprague-Dawley, rat, plasma, hydroxycodone series, 5.0 mg/kg oral, Mean ± SD
[9] = male, Sprague-Dawley, rat, plasma, hydroxycodone series, 5.0 mg/kg oral, Mean ± SD, read-out: Cmax
[10] = male, Sprague-Dawley, rat, plasma, hydroxycodone series, 5.0 mg/kg oral, read-out: Tmax (converted)

With `COCCOCCOCCO[C@H]1CC[C@@]2(O)[C@H]3Cc4ccc(O)c5c4[C@@]2(CCN3CC2CCC2)[C@H]1O5` [6-O-mPEG3-Nalbuphine] the “Brain:Plasma Ratios” value [1] was 0.23.

For `COc1ccc2c3c1O[C@H]1C(=O)CC[C@@]4(O)[C@@H](C2)N(C)CC[C@]314` [Oxycodone, oxycodone, reference compound], the “subjects showing addictive behavior” value (squirrel monkeys; 0.01 mg/kg/injection) was 25%, the “injection lever responses (% ILR)” value (squirrel monkeys; 0.03 mg/kg/injection) was 100% and the “subjects showing addictive behavior” value (squirrel monkeys; 0.03 mg/kg/injection) was 100%. The “injection lever responses (% ILR)” value (squirrel monkeys; 0.1 mg/kg/injection) was 100%, the ED50 (CD-1 male mice) was 0.619 mg/kg and the AUCall [2] was 12800 ± 1090 ng·min/mL. The AUCinf [2] was 13000 ± 1070 ng·min/mL, the CL [2] was 77.1 ± 6.26 mL/min/kg and the Cmax [2] was 495 ± 56.0 ng/mL. For the same molecule, the MRTlast [2] was 37.0 ± 1.28 min, the “T1/2(z)” value [2] was 47.0 ± 3.99 min and the AUCall [3, 6] was 4520 ± 1660 ng·min/mL. For the same molecule, the Cmax [3, 6] was 25.5 ± 1.86 ng/mL, the MRTlast [3, 6] was 179 ± 17.4 min and the Tmax ([3]; hydroxycodone series, 5.0 mg/kg oral) was 15.0 min. For the same molecule, the “oral dose at which maximal analgesia was obtained” value (mice) was 14 mg/kg.

`COCCOC1CCC2(O)C3Cc4ccc(OC)c5c4C2(CCN3C)C1O5` (stereo not drawn) [α-6-mPEG1-O-hydroxycodone, α-6-mPEG1-O-oxycodone] gave an ED50 (CD-1 male mice) of 6.06 mg/kg, a bioavailability [3, 7] of 2.1% and an AUC [3, 8] of 17.5 ng·h/mL. It also gave an MRT last [3, 8] of 66.8 min, an AUC(0-inf) [3, 8] of 19.2 ng·h/mL and a half-life [3, 8] of 57.7 min. It also gave a Cmax [3, 9] of 14.3 ± 6.43 ng/mL, a Tmax [3, 10] of 15 min and a Ki (human mu opioid receptor [4]; CHO-K1 membranes, [3H]DAMGO 6 nM, read-out: Ki, Mu opioid receptor) of 654 nM. The Emax (human mu opioid receptor [5]; maximal response at the highest tested concentration) was 102% and the EC50 (human mu opioid receptor [5]; read-out: EC50, mu opioid receptor) was 3840 nM.

For `COCCOCCOCCOCCOC1CCC2(O)C3Cc4ccc(OC)c5c4C2(CCN3C)C1O5` (stereo not drawn) [α-6-mPEG4-O-hydroxycodone, α-6-mPEG4-O-oxycodone], the ED50 (CD-1 male mice) was 17.3 mg/kg, the AUC [2, 7] was 192 ng·h/mL and the AUC(0-inf) [2, 7] was 193 ng·h/mL. It also gave an MRT last [2, 7] of 35.6 min, a clearance [2, 7] of 86.5 ± 6.36 mL/min/kg and a Cmax ([2]; male, Sprague-Dawley, rat, plasma, read-out: Cmax) of 537 ± 31 ng/mL. It also gave a half-life ([2]; male, Sprague-Dawley, rat, plasma, read-out: T1/2(z)) of 43.6 ± 3.27 min, a Vd ([2]; male, Sprague-Dawley, rat, plasma, read-out: Vss) of 3.34 ± 0.113 L/kg and a bioavailability [3, 7] of 11%. For the same molecule, the AUC [3, 8] was 106 ng·h/mL, the MRT last [3, 8] was 96.6 min and the AUC(0-inf) [3, 8] was 88 ng·h/mL. The half-life [3, 8] was 70.3 min, the Cmax [3, 9] was 55.8 ± 4.69 ng/mL and the Tmax [3, 10] was 15 min. For the same molecule, the Ki (human mu opioid receptor [4]) was 893 nM, the EC50 (human mu opioid receptor [5]) was 3720 nM and the Emax (human mu opioid receptor [5]) was 109%.
